For data set [1], the system named is Mus musculus. Kind of data set: Antinociceptive activity in ICR mouse model of chronic constriction injury-induced neuropathic pain assessed as inhibition of mechanical allodynia at 10 umol/kg, ip administered 7 days post-surgery and measured after 0.5 hrs post-dose by Von Frey assay relative to control. In kind it is functional.
Data set [2] relates to Mus musculus. Kind of data set: Antinociceptive activity in ICR mouse model of chronic constriction injury-induced neuropathic pain assessed as inhibition of mechanical allodynia at 10 umol/kg, ip administered 7 days post-surgery and measured after 3 hrs post-dose by Von Frey assay relative to control. In kind it is functional.
For data set [3], the system named is Mus musculus. Kind of data set: Antinociceptive activity in ICR mouse model of chronic constriction injury-induced neuropathic pain assessed as inhibition of mechanical allodynia at 10 umol/kg, ip administered 7 days post-surgery and measured after 2 hrs post-dose by Von Frey assay relative to control. In kind it is functional.
The subject of data set [4] is Mus musculus. Kind of data set: Protection ratio of antinociceptive activity in ICR mouse model of chronic constriction injury-induced neuropathic pain assessed as inhibition of mechanical allodynia at 10 umol/kg, ip administered 7 days post-surgery and measured after 3 hrs to 1 hrs post-dose by Von Frey assay. It counts as functional.
For data set [5], the system named is Mus musculus. The experiment in a line: Antinociceptive activity in ICR mouse model of chronic constriction injury-induced neuropathic pain assessed as inhibition of mechanical allodynia at 10 umol/kg, ip administered 7 days post-surgery and measured after 5 hrs post-dose by Von Frey assay relative to control. In kind it is functional.
For data set [6], the system named is Mus musculus. Kind of data set: Antinociceptive activity in ICR mouse model of chronic constriction injury-induced neuropathic pain assessed as inhibition of mechanical allodynia at 10 umol/kg, ip administered 7 days post-surgery and measured after 1 hr post-dose by Von Frey assay relative to control. It counts as functional.
Data set [7] has as its system Mus musculus. Kind of data set: Effect on nociception on contralateral paw in ICR mouse model of chronic constriction injury-induced neuropathic pain assessed as paw withdrawal threshold at 10 umol/kg, ip administered 7 days post-surgery and measured after 30 mins to 3 hrs post-dose by Von Frey assay. In kind it is organism-based. Particulars: in vivo.
In data set [8] the test system is Mus musculus. Kind of data set: Antinociceptive activity in ICR mouse model of chronic constriction injury-induced neuropathic pain assessed as inhibition of mechanical allodynia at 3 umol/kg, ip administered 7 days post-surgery and measured after 0.5 hrs post-dose by Von Frey assay relative to control. It counts as functional.
For data set [9], the system named is Mus musculus. Kind of data set: Antinociceptive activity in ICR mouse model of chronic constriction injury-induced neuropathic pain assessed as inhibition of mechanical allodynia at 1 umol/kg, ip administered 7 days post-surgery and measured after 0.5 hrs post-dose by Von Frey assay relative to control. In kind it is functional.
The test system of data set [10] is Mus musculus. Kind of data set: Antinociceptive activity in ICR mouse model of chronic constriction injury-induced neuropathic pain assessed as inhibition of mechanical allodynia at 3 umol/kg, ip administered 7 days post-surgery and measured after 5 hrs post-dose by Von Frey assay relative to control. In kind it is functional.
Data set [11] relates to Mus musculus. Kind of data set: Antinociceptive activity in ICR mouse model of chronic constriction injury-induced neuropathic pain assessed as inhibition of mechanical allodynia at 1 umol/kg, ip administered 7 days post-surgery and measured after 3 hrs post-dose by Von Frey assay relative to control. In kind it is functional.
Data set [12] has as its system Mus musculus. The experiment in a line: Antinociceptive activity in ICR mouse model of chronic constriction injury-induced neuropathic pain assessed as inhibition of mechanical allodynia at 1 umol/kg, ip administered 7 days post-surgery and measured after 1 hr post-dose by Von Frey assay relative to control. In kind it is functional.
The subject of data set [13] is Mus musculus. Kind of data set: Antinociceptive activity in ip dosed ICR mouse model of chronic constriction injury-induced neuropathic pain assessed as inhibition of mechanical allodynia administered 7 days post-surgery and measured after 1 hr post-dose by Von Frey assay. In kind it is functional.
Data set [14] relates to Mus musculus. Kind of data set: Antinociceptive activity in ICR mouse model of chronic constriction injury-induced neuropathic pain assessed as inhibition of mechanical allodynia at 3 umol/kg, ip administered 7 days post-surgery and measured after 3 hrs post-dose by Von Frey assay relative to control. It counts as functional.
In data set [15] the test system is Mus musculus. The experiment in a line: Antinociceptive activity in ICR mouse model of chronic constriction injury-induced neuropathic pain assessed as inhibition of mechanical allodynia at 1 umol/kg, ip administered 7 days post-surgery and measured after 5 hrs post-dose by Von Frey assay relative to control. It counts as functional.
Data set [16] concerns Mus musculus. Kind of data set: Antinociceptive activity in ICR mouse model of chronic constriction injury-induced neuropathic pain assessed as inhibition of mechanical allodynia at 1 umol/kg, ip administered 7 days post-surgery and measured after 2 hrs post-dose by Von Frey assay relative to control. It counts as functional.
Data set [17] concerns Mus musculus. Kind of data set: Antinociceptive activity in ICR mouse model of chronic constriction injury-induced neuropathic pain assessed as inhibition of mechanical allodynia at 3 umol/kg, ip administered 7 days post-surgery and measured after 1 hr post-dose by Von Frey assay relative to control. In kind it is functional.
For data set [18], the system named is Mus musculus. Kind of data set: Antinociceptive activity in ICR mouse model of chronic constriction injury-induced neuropathic pain assessed as inhibition of mechanical allodynia at 3 umol/kg, ip administered 7 days post-surgery and measured after 2 hrs post-dose by Von Frey assay relative to control. It counts as functional.
The target in data set [19] is Cannabinoid receptor 1 (Rattus norvegicus, UniProt P20272). The experiment in a line: Antagonist activity at rat brain CB1 receptor expressed in HEK-Flp-In cells in presence of [3H]CP55940 measured after overnight incubation by Bright-Glo luminescence assay. In kind it is cell-based.
Cannabinoid receptor 1, sequence (P20272 whole entry): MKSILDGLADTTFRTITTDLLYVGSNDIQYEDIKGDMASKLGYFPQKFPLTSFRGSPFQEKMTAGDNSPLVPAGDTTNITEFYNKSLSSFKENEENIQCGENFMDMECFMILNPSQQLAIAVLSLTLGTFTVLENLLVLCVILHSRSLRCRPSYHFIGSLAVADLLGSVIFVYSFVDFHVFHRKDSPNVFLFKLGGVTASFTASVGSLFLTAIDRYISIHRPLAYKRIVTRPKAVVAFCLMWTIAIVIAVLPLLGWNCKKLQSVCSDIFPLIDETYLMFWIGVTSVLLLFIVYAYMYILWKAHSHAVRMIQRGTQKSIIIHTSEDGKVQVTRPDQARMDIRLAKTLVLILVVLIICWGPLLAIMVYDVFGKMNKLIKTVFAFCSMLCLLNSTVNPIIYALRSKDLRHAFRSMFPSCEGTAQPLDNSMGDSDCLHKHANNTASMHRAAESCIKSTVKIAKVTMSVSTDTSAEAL
The target of data set [20] is Cannabinoid receptor 2 (Rattus norvegicus, UniProt Q9QZN9). Kind of data set: Antagonist activity at rat brain CB2 receptor expressed in HEK-Flp-In cells in presence of [3H]CP55940 measured after overnight incubation by Bright-Glo luminescence assay. It counts as cell-based.
Cannabinoid receptor 2, sequence (Q9QZN9 whole entry, looked up): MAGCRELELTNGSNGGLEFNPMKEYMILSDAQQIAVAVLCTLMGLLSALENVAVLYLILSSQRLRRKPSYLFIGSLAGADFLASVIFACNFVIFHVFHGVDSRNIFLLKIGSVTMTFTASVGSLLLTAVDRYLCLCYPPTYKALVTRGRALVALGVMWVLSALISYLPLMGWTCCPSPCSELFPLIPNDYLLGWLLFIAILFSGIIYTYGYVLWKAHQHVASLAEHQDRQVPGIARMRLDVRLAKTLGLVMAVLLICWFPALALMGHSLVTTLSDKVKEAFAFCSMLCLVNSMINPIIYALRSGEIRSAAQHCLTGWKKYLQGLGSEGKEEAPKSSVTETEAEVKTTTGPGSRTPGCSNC

Where only a bound is given, the exact number is not on record here.

On to `O=C(O)c1cc(O)c2ccc(-c3ccc(C(F)(F)F)cc3)cc2c1`, for which the inhibition in vivo at 10 µmol/kg in [1] was 23.4%; in data set [2], 35.2%; in [3] it was 59.8%; in data set [5], 0%; in data set [6], 64.2%. In addition, the Ratio in [4] is 0.34 - 0.63. The Activity entry in data set [7] is reported as “Non-Toxic”.
Consider `C#CCCCCN1CCC(c2ccc(-c3cc(C(=O)O)cc4cc(-c5ccc(C(F)(F)F)cc5)ccc34)cc2)CC1`, for which the inhibition in vivo at 10 µmol/kg in [1] stood at 52.4%; in data set [2] it was 9.6%; in [3] it was 42.7%; in data set [5], 0%; in data set [6] it was 75.9%. Moreover, in [4], the Ratio was determined as 0.13.
For the compound `NCCCNC(=O)c1ccc(-c2cc(C(=O)O)cc(-n3cc(-c4ccc(C(F)(F)F)cc4)nn3)c2)s1`, the inhibition in vivo at 10 µmol/kg in data set [1] came to 81%; in data set [2] it was 30.9%; in [3], 74%; in data set [5], 10%; in data set [6], 91.5%. Moreover, the Ratio in data set [4] is 0.34 - 0.63.
Regarding `O=C(O)c1cc(-c2ccc(C3CCNCC3)cc2)cc(-n2cc(-c3ccc(C(F)(F)F)cc3)nn2)c1`, the inhibition in vivo at 3 µmol/kg in data set [8] turned out to be 44.6%; in [10], 0%; in data set [14], 35.6%; in [17], 53.3%; in data set [18] it was 44.6%. Further, the inhibition in vivo at 1 µmol/kg in data set [9] was 8.7%; in [11], 8.7%; in data set [12] it was 18.7%; in data set [15] it was 8.7%; in data set [16], 18.7%. Moreover, the inhibition in vivo at 10 µmol/kg worked out at 52.4% in [1]; 31.9% in data set [2]; 57.2% in [3]; 12.7% in data set [5]; 67.4% in data set [6]. In data set [13], the ED50 was determined as 3.5 µmol/kg.
For `O=C(O)c1cc(-c2ccc(C3CCNCC3)cc2)cc(-c2cn(-c3ccc(C(F)(F)F)cc3)nn2)c1`, the inhibition in vivo at 10 µmol/kg was 70.7% in data set [1]; 55.1% in [2]; 71.4% in data set [3]; 6.7% in data set [5]; 86.8% in [6]. In [4], the Ratio is on record as 0.34 - 0.63. In [7], the Activity entry was “Non-Toxic”.
Turning to `CC(=O)N1CCC(c2ccc(-c3cc(C(=O)O)cc4cc(-c5ccc(C(F)(F)F)cc5)ccc34)cc2)CC1`, in data set [7], the Activity entry is “Non-Toxic”.
Consider `CCC(=O)N1CCC(c2ccc(-c3cc(C(=O)O)cc4cc(-c5ccc(C(F)(F)F)cc5)ccc34)cc2)CC1`, for which the inhibition in vivo at 10 µmol/kg in [1] was 32.9%; in [2], 55.7%; in data set [3] it was 71.6%; in data set [5], 5.6%; in data set [6], 77.2%. The Ratio in data set [4] is listed as 0.72 - 0.92.
For `O=C(O)c1cc(-c2ccc(C3CCNCC3)cc2)c2ccc(-c3ccc(C(F)(F)F)cc3)cc2c1` [PPTN], the inhibition in vivo at 3 µmol/kg worked out at 62.9% in data set [8]; 8.7% in [10]; 64.7% in data set [14]; 79.3% in data set [17]; 76.9% in data set [18]. Also, the inhibition in vivo at 1 µmol/kg in [9] was determined as 10%; in [11] it was 4.7%; in data set [12] it was 19.9%; in data set [15] it was 4.7%; in [16], 10%. Moreover, the inhibition in vivo at 10 µmol/kg in [1] is 87.9%; in [2], 78.6%; in [3], 96.4%; in [5], 21.3%; in data set [6], 100%. Moreover, in data set [13], the ED50 was determined as 1.6 µmol/kg. For the same compound, the 50% inhibitory concentration (IC50) in [19] and in data set [20] was more than 50 µM each time. The Activity result in data set [7] is “Non-Toxic”.

The values above are taken from ChEMBL document CHEMBL4616709, “P2Y14 Receptor Antagonists Reverse Chronic Neuropathic Pain in a Mouse Model” (ACS Med Chem Lett, 2020).
